Measured values reported in patent US9834773B2, “Methods and means for metabolic engineering and improved product formation by micro-organisms” (Universiteit Leiden, priority 2006, dated 2017).

Key:
[1] = tested on: S. coelicolor M145, M510, M511, M512; test: Pigmented antibiotic (actinorhodin, undecylprodigiosin) production on MM agar plates with or without GlcNAc; format: cell-based, Streptomyces coelicolor
Text: FIG. 2. Effect of dasR on development and antibiotic production. (A) Antibiotic production by S. coelicolor M145 and its dasR mutant BAP29 on minimal medium agar plates with or without GlcNAc. […] The latter is in line with our discovery that (i) ActV4A is enhanced in the mutant (FIG. 4) and (ii) the identification of a DasR-bound dre upstream of the pathway-specific activator genes actII-ORF4 for actinorhodin production and redZ for undecylprodigiosin production. Unexpectedly, the dasR mutant grown on minimal media with GlcNAc presents the expression of a yet unchartacterized green pigment. (B) Overexpression of DasR causes developmental arrest. Left, S. coelicolor M145 with control plasmid pUWL-KS; right, the same strain with a plasmid over-expressing dasR (grown for 4 days at 30° C.); note the almost complete lack of aerial hyphae (white) in the strain over-expressing DasR; (C) Scanning electron micrographs of aerial hyphae and spores of S. coelicolor M145 and the dasR mutant BAP29. […] Bars represent 5 μm. (D) Transmission electron micrographs of spores of M145 (left) and BAP29 (right). Arrows indicate the voids between the cell wall and the membrane. FD, full detachment; ID, incomplete detachment.
E. coli DH5α, and BL21(DE3) were used for subcloning and DasR overexpression experiments. S. coelicolor M145, M510 (M145 ΔredD), M511 (M145 ΔactII-IV) and M512 (M145 ΔactII-IV ΔredD) (Floriano and Bibb, 1996) and Streptomzyces lividans 1326 were all obtained from the John Innes Centre strain collection, Streptomyces avermitilis NRRL 8165 (MA-4680), Streptonzyces hygroscopicus ATCC27438, Streptomyces limosus ATCC 19778, Streptomyces rinzosus ATCC 10970, Streptonzyces roseosporus ATCC 31568 and Streptonzyces venezuelae ATCC15439 were obtained from the ATCC strain collection and Streptomyces acrinzycini DSM 40540, Streptomyces cinnanzonensis DSM 40467, Streptomyces clavuligerus NRRL 3585, Streptomyces collinus DSM 40733 and Streptomyces griseus NRRL B2682 from the DSMZ strain collection. The dasR mutant BAP29 (ΔdasR::accC4) was created by replacing the coding region of the gene by the apramycin resistance gene cassette, using plasmid pWHM3, according to a routine procedure (Nothaft et al., 2003). The same strategy was used to create the knock-out mutants for ptsH (BAP1), crr (BAP2), ptsI (BAP3), nagE1 (BAP4), nagE2 (BAP5), and nagE1/E2 (BAP6). BAP1-3 were published previously (Nothaft et al., 2003). S. coelicolor strains were grown at 28° C. using tryptic soy broth without dextrose as complex medium (TSB, Difco) or minimal medium (van Wezel et al., 2005). E. coli cultures were grown in Luria-Bertani broth (LB) at 37° C. Phenotypic characterization of mutants was done on minimal medium agar plates with various carbon sources as indicated in the text (Kieser et al., 2000). Quantification of Act and Red was performed as described previously (Martinez-Costa et al., 1996).
Arguing from the regulatory pathway deduced from the newly extended characterization of the DasR regulon (FIG. 22), we anticipated that DasR-dependent transport and phosphorylation of GlcNAc via the PTS could be a decisive signal to trigger actinorhodin and undecylprodigiosin biosynthesis in S. coelicolor. This hypothesis was tested by plating S. coelicolor M510 (ΔredD), M511 (ΔactII-ORF4) and M512 (ΔredD, ΔactII-ORF4) on MM agar plates with or without GlcNAc. […]

[2] = tested on: S. coelicolor M145 and nagE1, nagE2 mutants; test: Development on R2YE agar plates with or without N-acetylglucosamine; format: cell-based, Streptomyces coelicolor; conditions: N-acetylglucosamine 1% w/v
Description: FIG. 18. N-acetylglucosamine is transported by NagE2 (SCO2907). Mutants deleted for the transport genes nagE1/(SCO2906), nagE2 (SCO2907), or both, were plated on R2YE agar plates with or without N-acetylglucosamine (1% w/v). Other strains on the agar plates are: S.coelicolor M145 (parent of all mutants), the dasR mutant BAP29 and the pts mutants ptsH (BAP1), crr (BAP2), and ptsI (BAP3). For phenotypes of the pts mutants see also FIG. 3A). […] This proves that indeed nagE2 is the transporter of N-caetylglucosamine and is essential for import of the inducer molecule for the DasR control system.
Two possible transporters for N-acetylglucosamine were identified on the S. coelicolor genome, namely the adjacent genes nagE1 (SCO2906) and nagE2 (SCO2907). Mutants were created for both genes by replacing the entire gene by the apramycin resistance cassette aacC4. A double mutant was also produced (BAP6). The method used to do this was by using pWHM3, as described previously (Nothaft et al., 2003). Mutants deleted for the transport genes nagE1 (BAP4), nagE2 (BAP5), or both (BAP6), were plated on R2YE agar plates with or without N-acetylglucosamine (1% w/v). Other strains on the agar plates are: S.coelicolor M145 (parent of all mutants), the dasR mutant BAP29 and the pts mutants ptsH (BAP1), crr (BAP2), and ptsI (BAP3). For phenotypes of the pts mutants see also FIG. 3A). […] This proves that indeed nagE2 is the transporter of N-acetylglucosamine and is essential for import of the inducer molecule for the DasR control system.

With `CC(=O)N[C@H]1C(O)O[C@H](CO)[C@@H](O)[C@@H]1O` (stereo partly drawn) [N-acetylglucosamine] the “induction of the pigmented antibiotics actinorhodin and undecylprodigiosin” value ([1]; S. coelicolor M145, minimal medium agar plates with or without GlcNAc) was “required for induction”, the “production of Act (actinorhodin)” value ([1]; S. coelicolor M510 (ΔredD), MM agar, GlcNAc 10 mM, five days) was “induced” and the “production of Red (undecylprodigiosin)” value ([1]; S. coelicolor M511 (ΔactII-ORF4), MM agar, GlcNAc 10 mM, five days) was “induced”. The pigmented antibiotic production ([1]; S. coelicolor M512 (ΔredD, ΔactII-ORF4), MM agar, GlcNAc 10 mM) was “No pigmented antibiotic was observed”, the “concentration at which the 'GlcNAc effect' was observed” value ([1]; effect of GlcNAc on antibiotic production and development) was greater than 5 mM and the effect on development ([2]; nagE1/nagE2 double mutant (BAP6), R2YE agar) was “no effect on development”. The effect on development ([2]; nagE1 mutant (BAP4), R2YE agar) was “arrested in the vegetative state”, the effect on development ([2]; nagE2 mutant (BAP5), R2YE agar) was “no effect on development” and the effect on development ([2]; parental strain S. coelicolor M145, R2YE agar) was “arrested in the vegetative state”.
